Columns and labels:
Angiotensin II receptor = molecular target: T1, Angiotensin II receptor (Oryctolagus cuniculus, UniProt P34976); experiment: AII receptor antagonistic activity: inhibition of angiotensin II induced contraction of isolated rabbit thoracic aorta; assay type: cell-based; settings: isolated rabbit thoracic aorta contracted by angiotensin II; for pD2': Van Rossum method, values shown in parenthesis; for Kb: from dose-response curve (Schild), read-out: pA2 (converted)
T1 construct: Rabbit thoracic aorta is isolated, contracted by angiotensin II; from tissue; host or cells: rabbit thoracic aorta
T1 sequence (P34976 1-359): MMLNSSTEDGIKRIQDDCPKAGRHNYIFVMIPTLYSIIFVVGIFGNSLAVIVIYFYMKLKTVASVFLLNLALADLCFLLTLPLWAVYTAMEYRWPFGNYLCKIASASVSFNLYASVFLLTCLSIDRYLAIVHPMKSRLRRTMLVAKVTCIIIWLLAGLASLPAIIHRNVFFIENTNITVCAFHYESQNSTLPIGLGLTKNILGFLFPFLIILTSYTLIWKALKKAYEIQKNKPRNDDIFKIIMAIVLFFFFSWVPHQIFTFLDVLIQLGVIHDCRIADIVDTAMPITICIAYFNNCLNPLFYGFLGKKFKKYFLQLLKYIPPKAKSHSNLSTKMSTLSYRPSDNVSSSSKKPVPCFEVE
Method: [AII receptor antagonistic activity]
Angiotensin II receptor activity experiments are carried out according to P. C. Wong et al. (Hypertension 15, 823 (1990)).
Rabbit thoracic aorta is isolated, contracted by angiotensin II. The inhibition of contraction by the compound of formula (1) is expressed as pA2 from dose-response curve (Schild, Brit. J. Pharmacol. 14, 48 (1959)) or expressed as pD2 ' according to the method of J. M. Van Rossum (Arch. Intern. Pharmacodyn., 143, 229 (1963)).

pressor responses to AII = experiment: Inhibition of AII induced blood pressure increase in rats; assay type: in vivo; settings: Rattus norvegicus, po, test compound 0.3 mg/kg orally, AII 30 ng/kg i.v., pressor responses measured at set times
Method: [Inhibition of All induced Blood Pressure Increase]
Carotid artery and left femoral vein in rats were cannulated. Next day, the carotid catheter was connected to a pressure transducer for monitoring arterial blood pressure. After the measurement of AII (30 ng/kg, i.v.) pressor responses, test compounds (0.3 mg/kg) were administered orally.
Thereafter, the pressor responses to AII at set times were measured and the inhibition percent was calculated according to the comparison of the pressor responses.

Row | Compound | pD2' (Angiotensin II receptor) | Kb (Angiotensin II receptor) [nM] | inhibition in vivo at 0.3 mg/kg (pressor responses to AII) [%]
1 | CCOC(=O)/C=C1\CC(C(C)C)CCc2nc(CC)n(Cc3ccc(-c4ccccc4-c4nnn[nH]4)cc3)c21 (stereo not shown) [Compound 7, 2-Ethyl-6-isopropyl-8-ethoxycarbonylmethylidene-1-[(2'-(1H-tetrazole-5yl)biphenyl-4-yl)methyl]-4,5,6,7-tetrahydro-cycloheptimidazole] |  |  | ≥ 70
2 | CCc1nc2c(n1Cc1ccc(-n3cccc3-c3nnn[nH]3)cc1)/C(=C/C(=O)O)CCCC2 [Compound 23, 2-Ethyl-8-carboxymethylidene-1-[4-(1H-pyrrole-2-(1H-tetrazole-5-yl)phenyl)methyl]-4,5,6,7-tetrahydro-cycloheptimidazole] | 9.60 |  | 
3 | CCc1nc2c(n1Cc1ccc(-n3cccc3-c3nnn[nH]3)cc1)/C(=C/C(=O)OC(C)OC(=O)OC(C)C)CCCC2 (stereo not shown) [Compound 32, 2-Ethyl-8-(1-isopropoxycarbonyloxy)ethoxycarbonylmethylidene-[4-(1H-pyrrole-2-(1H-tetrazole-5-yl)phenyl)methyl]-4,5,6,7-tetrahydro-cycloheptimidazole] | 9.38 |  | 
4 | CCOC(=O)OC(C)OC(=O)/C=C1\CCCCc2nc(CC)n(Cc3ccc(-c4ccccc4-c4nnn[nH]4)cc3)c21 (stereo not shown) [Compound 36, 2-Ethyl-8-(1-ethoxycarbonyloxy)ethoxycarbonylmethylidene-1-[(2'-(1H -tetrazole-5-yl)biphenyl-4yl)methyl]-4,5,6,7-tetrahydro-cycloheptimidazole] | 8.59 |  | 
5 | CCc1nc2c(n1Cc1ccc(-c3ccccc3-c3nnn[nH]3)cc1)/C(=C/C(=O)OC(C)OC(=O)OC1CCCCC1)CCCC2 (stereo not shown) [Compound 35] | 8.12 |  | 
6 | CCc1nc2c(n1Cc1ccc(-c3ccccc3-c3nnn[nH]3)cc1)/C(=C/C(=O)OC(C)OC(=O)OC(C)C)CC(C(C)C)CC2 (stereo not shown) [Compound 31, 2-Ethyl-6-isopropyl-8-(1-isopropoxycarbonyloxy)ethoxycarbonylmethylidene-1-[(2'-(1H-tetrazole-5-yl)biphenyl-4-yl)methyl]-4,5,6,7-tetrahydro cycloheptimidazole] |  |  | ≥ 70
7 | CCCc1nc2c(n1Cc1ccc(-n3cccc3-c3nn[nH]n3)cc1)/C(=C/C(=O)O)CCCC2 [Compound 24, 2-Propyl-8-carboxymethylidene-1-[4-(1H-pyrrole-2-(1H-tetrazole-5-yl)phenyl)methyl]-4,5,6,7-tetrahydro-cycloheptimidazole] |  | 0.158 | 
8 | CCCc1nc2c(n1Cc1ccc(-c3ccccc3-c3nn[nH]n3)cc1)CCCC/C2=C\C(=O)O [Compound 14, 2-Propyl-4-carboxymethylidene-1-[(2'-(1H-tetrazole-5-yl)biphenyl-4-yl)methyl]-5,6,7,8-tetrahydro-cycloheptimidazole] |  | 0.158 | 
9 | Cc1nc2c(n1Cc1ccc(-n3cccc3-c3nn[nH]n3)cc1)/C(=C/C(=O)O)CCCC2 [Compound 22, 2-Methyl-8-carboxymethylidene-1-[4-(1H-pyrrole-2-(1H-tetrazole-5-yl)phenyl)methyl]-4,5,6,7-tetrahydro-cycloheptimidazole] |  | 1.26 | 
10 | CCCCc1nc2c(n1Cc1ccc(-n3cccc3-c3nn[nH]n3)cc1)/C(=C/C(=O)O)CCCC2 [Compound 26, 2-Butyl-8-carboxymethylidene-1-[4-(1H-pyrrole-2-(1H-tetrazole-5-yl)phenyl)methyl]-4,5,6,7-tetrahydro-cycloheptimidazole] |  | 0.501 | 
11 | CCOC(=O)/C=C1\CCCCc2nc(C)n(Cc3ccc(-c4ccccc4-c4nnn[nH]4)cc3)c21 [Compound 2, 2-Methyl-8-ethoxycarbonylmethylidene-1-[(2'-(1H-tetrazole-5-yl)biphenyl-4-yl)methyl]-4,5,6,7-tetrahydro-cycloheptimidazole] |  | 36.3 | 
12 | CCCc1nc2c(n1Cc1ccc(-c3ccccc3-c3nnn[nH]3)cc1)/C(=C/C(=O)OC(C)OC(=O)OC1CCCCC1)CCCC2 (stereo not shown) [Compound 28] |  |  | ≥ 70
13 | CCCc1nc2c(n1Cc1ccc(-c3ccccc3-c3nnn[nH]3)cc1)/C(=C/C(=O)OC(C)OC(=O)OC(C)C)CC(C(C)C)CC2 (stereo not shown) [Compound 33, 2-Propyl-6-isopropyl-8-(1-isopropoxycarbonyloxy)ethoxycarbonylmethylidene-1-[(2'-(1H-tetrazole-5-yl)biphenyl-4-yl)methyl]-4,5,6,7-tetrahydro-cycloheptimidazole] |  |  | ≥ 70

Now from value to compound, other results behind:

Row | pD2' (Angiotensin II receptor) | Kb (Angiotensin II receptor) [nM] | Compound | inhibition in vivo at 0.3 mg/kg (pressor responses to AII) [%]
14 | 9.04 |  | CCc1nc2c(n1Cc1ccc(-c3ccccc3-c3nnn[nH]3)cc1)/C(=C/C(=O)O)CC(C(C)C)CC2 (stereo not shown) [Compound 20, 2-Ethyl-6-isopropyl-8-carboxymethylidene-1-[(2'-(1H-tetrazole-5-yl)biphenyl-4-yl)methyl]-4,5,6,7-tetrahydro-cycloheptimidazole] | 
15 | 9.86 |  | CCCc1nc2c(n1Cc1ccc(-c3ccccc3-c3nnn[nH]3)cc1)/C(=C/C(=O)O)CCCC2 [Compound 17, 2-Propyl-8-carboxymethylidene-1-[(2'-(1H-tetrazole-5-yl)biphenyl-4-yl)methyl]-4,5,6,7-tetrahydro-cycloheptimidazole] | 50 to 70
16 | 8.40 |  | CCCc1nc2c(n1Cc1ccc(-c3ccccc3-c3nnn[nH]3)cc1)/C(=C/C(=O)OCC)CCCC2 [Compound 4, 2-Propyl-8-ethoxycarbonylmethylidene-1-[(2'-(1H-tetrazole-5-yl)biphenyl-4-yl)methyl]-4,5,6,7-tetrahydro-cycloheptimidazole] | 50 to 70
17 | 9.91 |  | CCc1nc2c(n1Cc1ccc(-c3ccccc3-c3nnn[nH]3)cc1)/C(=C/C(=O)O)CCCC2 [Compound 16, 2-Ethyl-8-carboxymethylidene-1-[(2'-(1H-tetrazole-5-yl)biphenyl-4-yl)methyl]-4,5,6,7-tetrahydro-cycloheptimidazole] | ≥ 70
18 |  | 1.51 | CCCCCc1nc2c(n1Cc1ccc(-c3ccccc3-c3nn[nH]n3)cc1)/C(=C/C(=O)O)CCCC2 [Compound 19, 2-Pentyl-8-carboxymethylidene-1-[(2'-(1H-tetrazole-5-yl)biphenyl-4-yl)methyl]-4,5,6,7-tetrahydro-cycloheptimidazole] | 
19 | 8.11 |  | CCc1nc2c(n1Cc1ccc(-c3ccccc3-c3nnn[nH]3)cc1)/C(=C/C(=O)OC(C)OC(=O)OC(C)C)CCCC2 (stereo not shown) [Compound 30, 2-Ethyl-8-(1-isopropoxycarbonyloxy)ethoxycarbonylmethylidene-1-[(2'-(1H-tetrazole-5-yl)biphenyl-4-yl)methyl]-4,5,6,7-tetrahydro-cycloheptimidazole] | 
20 | 8.45 |  | CCCc1nc2c(n1Cc1ccc(-c3ccccc3-c3nnn[nH]3)cc1)/C(=C/C(=O)OC(C)OC(=O)OCC)CCCC2 (stereo not shown) [Compound 27, 2-Propyl-8-(1-ethoxycarbonyloxy)ethoxycarbonylmethylidene-1-[(2'-(1H-tetrazole-5-yl)biphenyl-4-yl)methyl]-4,5,6,7-tetrahydro-cycloheptimidazole] | 
21 | 9.00 |  | CCOC(=O)/C=C1\CCCCc2nc(CC)n(Cc3ccc(-c4ccccc4-c4nnn[nH]4)cc3)c21 [Compound 3, 2-Ethyl-8-ethoxycarbonylmethylidene-1-[(2'-(1H-tetrazole-5-yl)biphenyl-4-yl)methyl]-4,5,6,7-tetrahydro-cycloheptimidazole] | 
22 | 9.91 |  | Cc1nc2c(n1Cc1ccc(-c3ccccc3-c3nnn[nH]3)cc1)/C(=C/C(=O)O)CCCC2 [Compound 15, 2-Methyl-8-carboxymethylidene-1-[(2'-(1H-tetrazole-5-yl)biphenyl-4-yl)methyl]-4,5,6,7-tetrahydro-cycloheptimidazole] | 
23 | 9.08 |  | CCCc1nc2c(n1Cc1ccc(-c3ccccc3-c3nnn[nH]3)cc1)/C(=C/C(=O)O)CC(C(C)C)CC2 (stereo not shown) [Compound 21, 2-Propyl-6-isopropyl-8-carboxymethylidene-1-[(2'-(1H-tetrazole-5-yl)biphenyl-4-yl)methyl]-4,5,6,7-tetrahydro-cycloheptimidazole] | 
24 | 9.03 |  | CCCCc1nc2c(n1Cc1ccc(-c3ccccc3-c3nnn[nH]3)cc1)/C(=C/C(=O)O)CCCC2 [Compound 18, 2-Butyl-8-carboxymethylidene-1-[(2'-(1H-tetrazole-5-yl)biphenyl-4-yl)methyl]-4,5,6,7-tetrahydro-cycloheptimidazole] | 
25 | 8.88 |  | CCCCc1nc2c(n1Cc1ccc(-c3ccccc3-c3nnn[nH]3)cc1)/C(=C/C(=O)O)CC(C(C)C)CC2 (stereo not shown) [Compound 25, 2-Butyl-6-isopropyl-8-carboxymethylidene-1-[(2'-(1H-tetrazole-5-yl)biphenyl-4-yl)methyl]-4,5,6,7-tetrahydro-cycloheptimidazole] | 

— patent US5527815A, “Carboxymethylidenecycloheptimidazole derivatives, method of manufacturing the same and therapeutic agents containing these compounds” (Kotobuki Seiyaku Co., Ltd., priority 1993, dated 1996)
